Common to all, as to assay type: cell-based, human
One experiment deals with uPAR mRNA. Briefly: Northern blot of uPAR mRNA in HTR-8/SVneo cells. The following applies: 24 h. The procedure: (§1) To determine whether hypoxia regulates the expression of certain genes (e.g., PAI-1, uPAR, RTP/Drg1) via an iron-containing heme protein, cells were cultured for up to 72 h at 20% oxygen in the presence or absence of either 100 μM cobalt chloride, or 30 mM sodium 4,5-dihydroxybenzene-1,3-disulfonate (Tiron), or 100 μM desferrioxamine mesylate (DFO) (Sigma Chemical CO., St. Louis, Mo.). Further confirmation of the role of a heme protein in hypoxic responses can be achieved by culturing cells under hypoxia in the presence of carbon monoxide, which maintains the heme protein in the oxy state and thereby blocks heme protein-mediated hypoxic responses. […]
Northern Blot Analysis. Total RNA was isolated from cell lines as described above. […] RNA was transferred to nylon membranes (Micron Separations, Inc., Westboro, Mass.). […] The hybridization solution contained 6×SSC, 0.5% SDS, 100 μg/mL denatured salmon sperm DNA, 50% formamide and cDNA probe. After hybridization, the membranes were washed with 2×SSC and 0.5% SDS at room temperature for 15 min, 2×SSC and 0.1% SDS at room temperature for 15 min, and 0.1×SSC and 0.5% SDS for 30 min. Dupont Reflection NEF film (Dupont Canada, Inc., Mississauga, ON) was exposed to the membranes for 1-3 days at −80° C. Bands on radiographic film were analyzed using a SigmaGel gel analysis software package (Jandel Scientific Software, San Rafael, Calif.).

A further experiment has as its system RTP/Drg1 mRNA. Nature of the experiment: Northern blot of RTP/Drg1 mRNA in MDA-MB-231 cells. Conditions: for levels of RTP/Drg1 mRNA: 20% oxygen, up to 72 h, 100 μM cobalt chloride, 30 mM Tiron or 100 μM DFO; for effect on hypoxic up-regulation of RTP/Drg1 mRNA: 1% oxygen + 30% CO, 24 h; for effect of CO on up-regulation of RTP/Drg1 mRNA induced by cobalt chloride, Tiron and DFO: hypoxic conditions with CO. The method, then: (§2) To determine whether hypoxia regulates the expression of certain genes (e.g., PAI-1, uPAR, RTP/Drg1) via an iron-containing heme protein, cells were cultured for up to 72 h at 20% oxygen in the presence or absence of either 100 μM cobalt chloride, or 30 mM sodium 4,5-dihydroxybenzene-1,3-disulfonate (Tiron), or 100 μM desferrioxamine mesylate (DFO) (Sigma Chemical CO., St. Louis, Mo.). Further confirmation of the role of a heme protein in hypoxic responses can be achieved by culturing cells under hypoxia in the presence of carbon monoxide, which maintains the heme protein in the oxy state and thereby blocks heme protein-mediated hypoxic responses. Thus, cells were also cultured for 24 h at 37° C. under hypoxic conditions in the presence of 30% carbon monoxide.
(§3) Northern Blot Analysis. Total RNA was isolated from cell lines as described above. Aliquots of 20 μg were denatured and subjected to electrophoresis in 1% agarose-formaldehyde gels (Sambrook, J., Fritsch, E. F., and Maniatis, T. Molecular Cloning: A Laboratory Manual, Cold Spring Harbor Laboratory, Cold Spring Harbor, N.Y. (1989)). RNA was transferred to nylon membranes (Micron Separations, Inc., Westboro, Mass.). After prehybridization at 42° C. for 2-3 h in 50% formamide, 5×Denhardt's solution, 0.5% sodium dodecyl sulfate (SDS), 6×SSC (1×SSC: 0.15M NaCl, 15 mM sodium citrate, pH 7.0), and 100 μg/mL denatured salmon sperm DNA, membranes were hybridized for a period of time of overnight (˜18 h) to about 72 h at 42° C. with a cDNA probe (e.g., RTP/Drg1, PAI-1 (PAI-1 cDNA provided by Dr. Keith McCrae, Temple University School of Medicine, Philadelphia, Pa.), uPAR (Higazi A, et al., J Biol Chem 266:12752, (1995)) pre-labeled with [^32P]-dCTP using a Pharmacia Oligolabelling kit (Pharmacia Biotech, Piscataway, N.J.). The hybridization solution contained 6×SSC, 0.5% SDS, 100 μg/mL denatured salmon sperm DNA, 50% formamide and cDNA probe. After hybridization, the membranes were washed with 2×SSC and 0.5% SDS at room temperature for 15 min, 2×SSC and 0.1% SDS at room temperature for 15 min, and 0.1×SSC and 0.5% SDS for 30 min. Dupont Reflection NEF film (Dupont Canada, Inc., Mississauga, ON) was exposed to the membranes for 1-3 days at −80° C. Bands on radiographic film were analyzed using a SigmaGel gel analysis software package (Jandel Scientific Software, San Rafael, Calif.).

In the next experiment the test system is PAI-1 mRNA. Nature of the experiment: Northern blot of PAI-1 mRNA in HTR-8/SVneo cells. Conditions: for increase in PAI-1 mRNA (3.0-kb and 2.3-kb transcripts): 24 hours in the presence of compound. The procedure: as §1
as §3, with “After hybridization, the membranes were washed with 2×SSC and 0.5% SDS at room temperature for 15 min, 2×SSC and 0.1% SDS at room temperature for 15 min, and 0.1×SSC and 0.5% SDS for 30 min. Dupont Reflection NEF film (Dupont Canada, Inc., Mississauga, ON) was exposed to the membranes for 1-3 days at −80° C.” left out, “Calif.). […]” for “Calif.).”

The test system of another experiment is RTP/Drg1 protein. Briefly: Western blot of RTP/Drg1 protein in MDA-MB-231 cells. The following applies: for levels of RTP/Drg1 protein: 20% oxygen, up to 72 h, 100 μM cobalt chloride, 30 mM Tiron or 100 μM DFO; for reduction in RTP/Drg1 protein levels (hypoxic up-regulation), densitometry: 1% oxygen + 30% CO, 24 h; for effect of CO on up-regulation of RTP/Drg1 protein induced by cobalt chloride, Tiron and DFO: hypoxic conditions with CO. The procedure: as §2
Western Blot Analysis. To examine levels of RTP/Drg1 protein, cells were lysed with buffer containing 40 mM HEPES pH 7.2, 100 mM NaCl, 20% glycerol, 0.1 mM EDTA pH 8.0, 0.2% Triton X-100 (polyoxyethylene (10) isooctylphenyl ether), 1 mM DTT, and 2 mM PMSF, and centrifuged briefly at 4° C. The supernatants were collected and stored at −80° C. until use. SDS-PAGE was performed and resolved proteins were transferred to Immobilon-P membranes (Millipore Corp., Bedford, Mass.) using a semi-dry transfer cell (Bio-Rad Laboratories, Mississauga, ON). Membranes were blocked by incubation overnight at 4° C. in a PBS-buffered solution containing 0.01% Tween 20 (polyoxyethylene(20) sorbitan monolaurate) (PBS-T) and 5% casein. The blots were then incubated with polyclonal rabbit anti-Drg1 antiserum followed by incubation with a peroxidase labeled goat anti-rabbit IgG secondary antibody (Vector Lab. Inc., Burlingame, Calif.). Antigen was detected by enhanced chemiluminescence (ECL, Amersham Canada Inc., Oakville, ON) and exposure of the membrane onto Dupont Reflection NEF film (Dupont Canada, Inc., Mississauga ON).
For orientation: In western blotting, separated proteins are transferred to a membrane and probed.

[1] abbreviates: standard (20% O2) conditions with compound.

Entries after “also recorded” stand apart in the source; their conditions may differ.

`O=S(=O)([O-])c1cc(O)c(O)c(S(=O)(=O)[O-])c1.[Na+].[Na+]` [Tiron, sodium 4,5-dihydroxybenzene-1,3-disulfonate]: the “increase in uPAR mRNA vs standard conditions alone” value with uPAR mRNA (setting [1]) was more than 10 fold. For the same molecule, in the experiment with RTP/Drg1 mRNA, the “levels of RTP/Drg1 mRNA” value was “time-dependent increases in RTP/Drg1 mRNA”. Further, the “increase in PAI-1 mRNA (3.0-kb and 2.3-kb transcripts)” value with PAI-1 mRNA was “substantial increase”. In addition, the “levels of RTP/Drg1 protein” value with RTP/Drg1 protein is recorded as “time-dependent increases in RTP/Drg1 protein”.
With `[C-]#[O+]` [carbon monoxide], in the experiment with uPAR mRNA (1% O2 + 20% carbon monoxide), the “reduction of hypoxia-mediated increase in uPAR mRNA” value is on record as 35%. Further, the “increase in uPAR mRNA vs standard conditions alone” value in the experiment on uPAR mRNA (hypoxic (1% O2) conditions in the presence of 20% carbon monoxide) is listed as 1.8 fold. Besides, the “effect on hypoxic up-regulation of RTP/Drg1 mRNA” value with RTP/Drg1 mRNA is reported as “abrogated”; in the experiment with RTP/Drg1 mRNA (listed as CO), “substantial decrease in mRNA levels”. Further, the figures for the “effect of CO on up-regulation of RTP/Drg1 mRNA induced by cobalt chloride, Tiron and DFO” value in the experiment with RTP/Drg1 mRNA and with RTP/Drg1 mRNA (listed as CO) were “did not inhibit” and “unable to inhibit”, respectively. The “effect on hypoxia-mediated increase in PAI-1 mRNA levels” value in the experiment with PAI-1 mRNA (1% oxygen + 20% carbon monoxide, 24 hours) is “prevented most of the hypoxia-mediated increase in PAI-1 mRNA levels; also recorded: abolished the effect of hypoxia on PAI-1 mRNA levels”. The “reduction in RTP/Drg1 protein levels (hypoxic up-regulation), densitometry” value was “abrogated” in the experiment on RTP/Drg1 protein and 57% in the experiment with RTP/Drg1 protein (listed as CO). The figures for the “effect of CO on up-regulation of RTP/Drg1 protein induced by cobalt chloride, Tiron and DFO” value in the experiment on RTP/Drg1 protein and with RTP/Drg1 protein (listed as CO) were “did not inhibit” and “unable to inhibit”, respectively.
As for `[Cl][Co][Cl]` [cobalt chloride], in the experiment on uPAR mRNA (setting [1]), the “increase in uPAR mRNA vs standard conditions alone” value stood at 3.5 fold. In the experiment on RTP/Drg1 mRNA, the “levels of RTP/Drg1 mRNA” value is recorded as “time-dependent increases in RTP/Drg1 mRNA”. In addition, in the experiment on PAI-1 mRNA, the “increase in PAI-1 mRNA (3.0-kb and 2.3-kb transcripts)” value was “about 2 fold”. Besides, the “levels of RTP/Drg1 protein” value in the experiment on RTP/Drg1 protein was “time-dependent increases in RTP/Drg1 protein”.

The record behind these values is patent publication US6376169B1, “Method for diagnosing a vascular condition” (Queens University at Kingston, priority 1998, dated 2002).
